Data published in patent US9512140B2, “(Thieno[2,3-b][1,5]benzoxazepin-4-yl)piperazin-1-yl compounds as dual activity H1 inverse agonists/5-HT2A antagonists” (priority 2011, dated 2016).
Counter-ions that a name gives are not always drawn.

Legend:
[1] = target: T1, 5-HT2B (Homo sapiens, UniProt P41595); assay: 5-HT2B agonist functional activity; format: biochemical
Excerpt: (§1) Further, the compounds of the invention may be tested in binding assays and functional activity assays by well known methods for other physiologically important receptors such as, but not limited to, the hERO channel, other serotonin receptors (specifically 5-HT1B, 5-HT1D, receptors, lack of agonist activity at 5-HT2B receptors, 5-HT2C, 5-HT5, 5-HT6, and 5-HT7 receptors), dopaminergic receptors (specifically D1, D2, and D3), GABAA receptors, adrenergic receptors and monoamine transporters.

[2] = target: T1, 5-HT2B; assay: 5-HT2B antagonist functional activity; format: biochemical
Excerpt: as §1

[3] = tested on: native GABAA receptors; assay: GABAA antagonism using native receptors in primary neuronal cultures (FLIPR); format: cell-based; conditions: against GABA at 10 μM, rat cortical embryonic neurons
Experimental: Activity of compounds on native GABAA receptors is evaluated by monitoring calcium fluxes using a 96 well format FLIPR® system (Fluorometric Imaging Plate Reader (FLIPR®, Molecular Devices). Briefly, cortical embryonic neurons are dissociated from E18 rat embryos and plated at optimum density into black-walled, transparent bottom poly-D-lysine coated 96-well FLIPR® plates. After loading the cells with a calcium sensitive dye (Fluo4-AM, Molecular Devices), the cells are bathed in a solution containing low chloride (chloride replaced by gluconate). Under these conditions activation of GABAA receptors causes an efflux of chloride ions (in the direction of the chemical gradient), which results in membrane depolarization and consequently activation of voltage gated calcium channels (VGCCs). Calcium influx through VGCCs is recorded and analysed offline using the FLIPR® system. For a pharmacological validation of the assay, concentration response curves (CRC) are recorded for the standard agonist (GABA) and standard antagonist (Gabazine). […]
The antagonist effects of compounds are quantified using 10-point dose response curves by comparing the peak fluorescent responses to the agonist GABA in the presence and absence of compound. […] Antagonist effects are calculated as a percent of the assay window. […]

[4] = target: Dopamine D2 (Homo sapiens, UniProt P14416); assay: Dopamine D2 binding
Sequence of Dopamine D2 (P14416 whole entry): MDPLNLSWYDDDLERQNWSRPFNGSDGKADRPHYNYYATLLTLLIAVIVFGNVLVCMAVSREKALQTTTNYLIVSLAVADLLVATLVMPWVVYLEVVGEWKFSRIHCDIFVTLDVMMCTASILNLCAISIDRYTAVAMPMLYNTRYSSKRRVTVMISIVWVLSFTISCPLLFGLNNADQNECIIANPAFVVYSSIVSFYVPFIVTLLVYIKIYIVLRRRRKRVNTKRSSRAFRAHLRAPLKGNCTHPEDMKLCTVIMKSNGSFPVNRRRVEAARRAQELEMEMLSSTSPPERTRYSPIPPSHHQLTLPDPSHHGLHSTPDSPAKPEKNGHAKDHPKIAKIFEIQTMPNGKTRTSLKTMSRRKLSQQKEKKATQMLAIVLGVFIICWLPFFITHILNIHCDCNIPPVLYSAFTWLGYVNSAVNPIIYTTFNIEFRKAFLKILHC
Excerpt: as §1

[5] = target: Adrenergic alpha2B (Homo sapiens, UniProt P18089); assay: Adrenergic alpha2B binding
Sequence of Adrenergic alpha2B (P18089 whole entry): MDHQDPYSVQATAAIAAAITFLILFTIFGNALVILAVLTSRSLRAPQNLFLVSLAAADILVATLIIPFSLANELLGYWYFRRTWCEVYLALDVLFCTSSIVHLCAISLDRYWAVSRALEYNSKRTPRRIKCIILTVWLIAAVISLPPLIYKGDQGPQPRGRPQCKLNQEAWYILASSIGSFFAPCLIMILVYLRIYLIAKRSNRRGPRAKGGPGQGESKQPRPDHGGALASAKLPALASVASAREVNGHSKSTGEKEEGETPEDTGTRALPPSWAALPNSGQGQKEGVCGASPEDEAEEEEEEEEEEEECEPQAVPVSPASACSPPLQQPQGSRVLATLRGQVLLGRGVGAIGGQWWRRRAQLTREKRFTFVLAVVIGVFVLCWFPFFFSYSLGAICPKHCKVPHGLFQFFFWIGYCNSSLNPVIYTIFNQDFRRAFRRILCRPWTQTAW
Excerpt: as §1

[6] = tested on: Rats; assay: Sleep and behavioral monitoring in rats (EEG, EMG, motion); format: in vivo
Experimental: The compound of the present invention is tested in rats for its ability to increase the amount of sleep or decrease sleep interruption or both without undesired effects such as inhibition of REM sleep, waking motor impairment, and/or rebound insomnia. Test animals are continuously monitored by electro-encephalograms (EEG), electromyograms (EMG), and motion to measure cumulative nonREM sleep, cumulative total sleep, average sleep bout duration, longest sleep bout duration, rebound insomnia. REM sleep inhibition and locomotor activity intensity during wakefulness. Methods for such studies are known in the art (see for example methods described in Edgar D M, Seidel W F. Modafinil induces wakefulness without intensifying motor activity or subsequent rebound hypersomnolence in the rat. J Pharmacology & Experimental Therapeutics 1997; 283: 757-769; van Gelder R N, Edgar D M, Dement W C. Real-time automated sleep scoring: validation of a microcomputer-based system for mice. Sleep 1991, 14: 48-55; and Gross B A, Walsh C M, Turakhia A A, Booth V, Mashour G A, Poe G R. Open-source logic-based automated sleep scoring software using electrophysiological recordings in rats. J Neurosci Methods. 2009; 184(1):10-8.) Studies are conducted as follows:
Adult, male Wistar rats (approximately 270-300 g at time of surgery) are surgically fitted for chronic recording of EEG, EMG, and motion as follows: Rats are surgically prepared with a cranial implant consisting of four stainless steel screws for EEG recording (two frontal [3.9 mm anterior from bregma, and ±2.0 mm mediolaterally] and two occipital [6.4 mm posterior from bregma, ±5.5 mm mediolaterally]), and with two Teflon-coated stainless steel wires for EMG recording (positioned under the nuchal trapezoid muscles). All leads are soldered to a miniature connector (Microtech, Boothwyn, Pa.) prior to surgery. The implant assembly is affixed to the skull by the combination of the stainless steel EEG recording screws, cyanoacrylate applied between the implant connector and skull, and dental acrylic. Locomotor activity is monitored via a miniature transmitter (Minimitter PDT4000G, Philips Respironics, Bend, Oreg.) surgically placed into the abdomen. At least 3 weeks are allowed for recovery.
Each rat is housed individually within a microisolator cage modified with an inserted polycarbonate filter-top riser to allow more vertical headroom. A flexible cable that minimally restricts movement is connected at one end to a commutator afixed to the cage top and at the other end to the animal's cranial implant. Each cage is located within separate, ventilated compartments of a stainless steel sleep-wake recording chamber. Food and water are available ad libitum and the ambient temperature is maintained at about 23±1° C. A 24-hr light-dark cycle (LD 12:12) using fluorescent light is maintained throughout the study. Relative humidity averages approximately 50%. Animals are undisturbed for at least 30 hrs before and after each treatment.
The vehicle (placebo, methylcellulose 15 centipoise 0.25% in water) or one of the test compound dose levels is administered orally at 1 mL/kg pseudo-randomly such that no rat receives the same treatment twice, and no rat receives more than two of the 8 treatments in any one study. Each rat is removed from its cage for about a minute to be weighed and treated. At least 6 days “washout” period precede and follow each treatment. […]

[7] = threshold efficacy dose, 4 parameter logistic regression, 6 hr. after treatment, rat PO

T1 sequence (P41595 whole entry, species assumed): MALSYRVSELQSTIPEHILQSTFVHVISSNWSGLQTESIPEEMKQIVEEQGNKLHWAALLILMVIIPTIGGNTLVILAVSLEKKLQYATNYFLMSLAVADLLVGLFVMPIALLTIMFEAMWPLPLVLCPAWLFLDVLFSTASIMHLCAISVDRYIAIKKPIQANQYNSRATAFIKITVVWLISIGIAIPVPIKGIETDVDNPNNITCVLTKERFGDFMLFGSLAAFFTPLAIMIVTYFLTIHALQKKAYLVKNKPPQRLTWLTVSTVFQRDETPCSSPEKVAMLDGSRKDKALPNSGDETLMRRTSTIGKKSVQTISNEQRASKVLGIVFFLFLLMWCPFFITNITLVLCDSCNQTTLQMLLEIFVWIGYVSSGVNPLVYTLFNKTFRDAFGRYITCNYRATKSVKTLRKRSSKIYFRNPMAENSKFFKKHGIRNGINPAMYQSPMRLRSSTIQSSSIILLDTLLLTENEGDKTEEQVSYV

SMILES: Cc1ccc2c(c1)Oc1sc(C)cc1C(N1CCN(CC(C)(C)C(=O)O)CC1)=N2 [Example 2, 3-[4-(2,8-Dimethylthieno[2,3-b][1,5]benzoxazepin-4-yl)piperazin-1-yl]-2,2-dimethyl-propanoic acid dihydrochloride]
- EC50 [1]: > 10 µM
- Kb [2]: 0.045 µM
- IC50 [3]: 98 µM
- Ki [4]: 2.48 µM
- Ki [5]: 3.71 µM
- apparent REM sleep inhibition, statistical significance ([6]; 0.25 mg/kg and 0.025 mg/kg, rat): not statistically significant
- REM sleep inhibition against the threshold value (−10 min.) ([6]; 3 mg/kg, rat): exceeded the threshold value
- cumulative NREM sleep time (in words) ([6]; 3 mg/kg, rat): significantly increase
- cumulative total sleep time (in words) ([6]; 3 mg/kg, rat): significantly increase
- inhibition of locomotor intensity (LMI) (in words) ([6]; 3 mg/kg, rat): without significant
- rebound insomnia (in words) ([6]; 3 mg/kg, rat): without significant rebound insomnia
- REM sleep inhibition (overall conclusion, in words) ([6]; rat sleep study): cannot be ruled out
- rebound insomnia or reduction in LMI within 10 times the most conservative efficacy dose ([6]; rat, efficacy dose 0.26 mg/kg): no undesired occurences of REM rebound insomnia, or reduction in LMI are observed
- Estimated efficacy dose, NREM accumulation = 30 min. [6, 7]: 0.05 mg/kg
- Estimated efficacy dose, average sleep bout (1.5-fold increase) [6, 7]: 0.21 mg/kg
- Estimated efficacy dose, longest sleep bout (1.75-fold increase) [6, 7]: 0.26 mg/kg
- Estimated efficacy dose, total sleep accumulation = 25 min. [6, 7]: 0.07 mg/kg
